One experiment has as its system HCV replicon cells. In words: HCV FRET assay in HCV replicon cells. Type of experiment: cell-based. Particulars: Hepatitis C virus. From the text:
FRET Assay Preparation. To perform the HCV FRET screening assay, 96-well cell culture plates were used. The FRET peptide (Anaspec, Inc.) (Taliani et al., Anal. Biochem. 1996, 240, 60-67) contains a fluorescence donor, EDANS, near one end of the peptide and an acceptor, DABCYL, near the other end. The fluorescence of the peptide is quenched by […] resonance energy transfer (RET) between the donor and the acceptor, but as the NS3 protease cleaves the peptide the products are released from RET quenching and the fluorescence of the donor becomes apparent. The assay reagent was made as follows: 5× cell Luciferase cell culture lysis reagent from Promega (#E153A) diluted to 1× with dH2O, NaCl added to 150 mM final, the FRET peptide diluted to 20 uM final from a 2 mM stock.
To prepare plates, HCV replicon cells, with or without a Renilla luciferase reporter gene, were trypsinized and placed into each well of a 96-well plate with titrated test compounds added in columns 3 through 12; columns 1 and 2 contained a control compound (HCV protease inhibitor), and the bottom row contained cells without compound. The plates were then placed in a CO2 incubator at 37° C.
Assays. Subsequent to addition of the test compounds described above (FRET Assay Preparation), at various times the plate was removed and Alamar blue solution (Trek Diagnostics, #00-100) was added per well as a measure of cellular toxicity. After reading in a Cytoflour 4000 instrument (PE Biosystems), plates were rinsed with PBS and then used for FRET assay by the addition of 30 ul of the FRET peptide assay reagent described above (FRET Assay Preparation) per well. The plate was then placed into the Cytoflour 4000 instrument which had been set to 340 excite/490 emission, automatic mode for 20 cycles and the plate read in a kinetic mode. Typically, the signal to noise using an endpoint analysis after the reads was at least three-fold. Alternatively, after Alamar blue reading, plates were rinsed with PBS, 50 ul of DMEM (high glucose) without phenol red was added and plates were then used for luciferase assay using the Promega Dual-Glo Luciferase Assay System.
Compound analysis was determined by quantification of the relative HCV replicon inhibition and the relative cytotoxicity values. To calculate cytoxicity values, the average Alamar Blue fluorescence signals from the control wells were set as 100% non-toxic. The individual signals in each of the compound test wells were then divided by the average control signal and multiplied by 100% to determine […]. To calculate the HCV replicon inhibition values, an average background value was obtained from the two wells containing the highest amount of HCV protease inhibitor at the end of the assay period. These numbers were similar to those obtained from naïve Huh-7 cells.
The background numbers were then subtracted from the average signal obtained from the control wells and this number was used as 100% activity. The individual signals in each of the compound test wells were then divided by the averaged control values after background subtraction and multiplied by 100% to determine percent activity. EC50 values for a protease inhibitor titration were calculated as the concentration which caused a 50% reduction in FRET or luciferase activity. The two numbers generated for the compound plate, percent cytoxicity and percent activity were used to determine compounds of interest for further analysis.

Another experiment deals with T1, HCV NS5B (Hepatitis C virus genotype 1b, UniProt Q9WMX2).
T1 construct: The protein was expressed with an 18 amino acid C-terminal truncation to enhance the solubility; made in house; host or cells: E. coli BL21(DE3)
Briefly: Modified HCV NS5B RdRp enzyme assay (preincubation protocol). Particulars: HCV NS5B RdRp genotype 1b. In kind it is biochemical. Here is the method: HCV NS5B RdRp cloning, expression, and purification. The cDNA encoding the NS5B protein of HCV, genotype 1b, was cloned into the pET21a expression vector. The protein was expressed with an 18 amino acid C-terminal truncation to enhance the solubility. The E. coli competent cell line BL21(DE3) was used for expression of the protein. Cultures were grown at 37° C. for ˜4 hours until the cultures reached an optical density of 2.0 at 600 nm. The cultures were cooled to 20° C. and induced with 1 mM IPTG. Fresh ampicillin was added to a final concentration of 50 μg/ml and the cells were grown overnight at 20° C.
Cell pellets (3 L) were lysed for purification to yield 15-24 […] of purified NS5B. The lysis buffer consisted of 20 mM Tris-HCl, pH 7.4, 500 mM NaCl, 0.5% triton X-100, 1 mM DTT, 1 mM EDTA, 20% glycerol, 0.5 mg/ml lysozyme, 10 mM MgCl2, 15 ug/ml deoxyribonuclease I, and Complete TM protease inhibitor tablets (Roche). After addition of the lysis buffer, frozen cell pellets were resuspended using a tissue homogenizer. To reduce the viscosity of the sample, aliquots of the lysate were sonicated on ice using a microtip attached to a Branson sonicator. The sonicated lysate was centrifuged at 100,000×g for 1 hr at 4° C. and filtered through a 0.2 μm filter unit (Corning).
The protein was purified using three sequential chromatography steps: Heparin sepharose CL-6B, polyU sepharose 4B, and Hitrap SP sepharose (Pharmacia). The chromatography buffers were identical to the lysis buffer but contained no lysozyme, deoxyribonuclease I, MgCl2 or protease inhibitor and the NaCl concentration of the buffer was adjusted according to the requirements for charging the protein onto the column. Each column was eluted with a NaCl gradient which varied in length from 5-50 column volumes depending on the column type. After the final chromatography step, the resulting purity of the enzyme is >90% based on SDS-PAGE analysis. The enzyme was aliquoted and stored at −80° C.
Standard HCV NS5B RdRp enzyme assay. HCV RdRp genotype 1b assays were run in a final volume of 60 μl in 96 well plates (Costar 3912). The assay buffer is composed of 20 mM Hepes, pH 7.5, 2.5 mM KCl, 2.5 mM MgCl2, 1 mM DTT, 1.6 U RNAse inhibitor (Promega N2515), 0.1 mg/ml BSA (Promega R3961), and 2% glycerol. All compounds were serially diluted (3-fold) in DMSO and diluted further in water such that the final concentration of DMSO in the assay was 2%. HCV RdRp genotype 1b enzyme was used at a final concentration of 28 nM. A polyA template was used at 6 nM, and a biotinylated oligo-dT12 primer was used at 180 nM final concentration. Template was obtained commercially (Amersham 27-4110). Biotinylated primer was prepared by Sigma Genosys. 3H-UTP was used at 0.6 μCi (0.29 μM total UTP). Reactions were initiated by the addition of enzyme, incubated at 30° C. for 60 min, and stopped by adding 25 μl of 50 mM EDTA containing SPA beads (4 μg/μl, Amersham RPNQ 0007). Plates were read on a Packard Top Count NXT after >1 hr incubation at room temperature.
Modified HCV NS5B RdRp enzyme assay. A modified enzyme assay was performed essentially as described for the standard enzyme assay except for the following: The biotinylated oligo dTl2 primer was precaptured on streptavidin-coated SPA beads by mixing primer and beads in assay buffer and incubating at room temperature for one hour. Unbound primer was removed after centrifugation. The primer-bound beads were resuspended in 20 mM Hepes buffer, pH 7.5 and used in the assay at final concentrations of 20 nM primer and […] beads. Order of addition in the assay: enzyme (14 nM) was added to diluted compound followed by the addition of a mixture of template (0.2 nM), 3H-UTP (0.6 μCi, 0.29 μM), and primer-bound beads, to initiate the reaction; concentrations given are final. Reactions were allowed to proceed for 4 hours at 30° C.
IC50 values for compounds were determined using seven different. […]

Molecules are shown by their SMILES.

T1 sequence (Q9WMX2 2420-2992): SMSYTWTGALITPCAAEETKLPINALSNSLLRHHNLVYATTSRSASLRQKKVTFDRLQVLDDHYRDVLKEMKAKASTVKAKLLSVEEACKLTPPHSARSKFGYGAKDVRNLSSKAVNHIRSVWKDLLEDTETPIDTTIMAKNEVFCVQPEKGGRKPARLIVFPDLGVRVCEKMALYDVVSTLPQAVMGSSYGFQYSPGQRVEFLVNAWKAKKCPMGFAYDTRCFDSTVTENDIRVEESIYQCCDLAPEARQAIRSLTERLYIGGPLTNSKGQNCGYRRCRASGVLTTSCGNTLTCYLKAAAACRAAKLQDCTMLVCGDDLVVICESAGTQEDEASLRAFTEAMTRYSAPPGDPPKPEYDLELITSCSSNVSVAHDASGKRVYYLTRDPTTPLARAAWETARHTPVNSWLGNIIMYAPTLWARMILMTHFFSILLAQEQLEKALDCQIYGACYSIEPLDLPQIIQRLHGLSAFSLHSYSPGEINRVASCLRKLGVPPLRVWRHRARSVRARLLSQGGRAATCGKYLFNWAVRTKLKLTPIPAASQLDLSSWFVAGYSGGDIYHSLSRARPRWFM

The EC50 is the midpoint of the concentration-response curve. A low value points to an effect from little substance. By IC50 is commonly meant the concentration that inhibits the measured activity by half. In the experiment with HCV replicon cells, `COc1ccc2c(c1)C1CN(C(=O)[C@@H]3CCCN3C)CC1(C(=O)N(C)C)Cn1c-2c(C2CCCCC2)c2ccc(C(=O)NS(=O)(=O)N(C)C)cc21` (mixture of isomers) [Example 19, rac-(3aR,14bR)-10-cyclohexyl-N^7-(dimethylsulfamoyl)-13-methoxy-N^3a,N^3a-dimethyl-2-(1-methyl-L-prolyl)-1,2,3,14b-tetrahydroindolo[2,1-a]pyrrolo[3,4-d][2]benzazepine-3a,7(4H)-dicarboxamide] registered a concentration for a half-maximal effect (EC50) of 63 nM. The compound also returned an IC50 against HCV NS5B of 61 nM.
`COc1ccc2c(c1)C1CN(C(=O)N(C)C)CC1(C(=O)N(C)C)Cn1c-2c(C2CCCCC2)c2ccc(C(=O)NS(=O)(=O)N(C)C)cc21` (racemic) [Example 8, rac-(3aR,14bR)-10-cyclohexyl-N^7-(dimethylsulfamoyl)-13-methoxy-N^2,N^2,N^3a,N^3a-tetramethyl-1,14b-dihydroindolo[2,1-a]pyrrolo[3,4-d][2]benzazepine-2,3a,7(3H,4H)-tricarboxamide] yielded an EC50 with HCV replicon cells (reported as class) of 20 to 500 nM. The same compound displayed an IC50 against HCV NS5B (reported as class) of 20 to 500 nM.
In the experiment with HCV replicon cells (reported as class), `COc1ccc2c(c1)C1CN(C(=O)c3nccn3C)CC1(C(=O)N(C)C)Cn1c-2c(C2CCCCC2)c2ccc(C(=O)NS(=O)(=O)N(C)C)cc21` (racemic) [Example 16, rac-(3aR,14bR)-10-Cyclohexyl-N^7-(dimethylsulfamoyl)-13-methoxy-N^3a,N^3a-dimethyl-2-((1-methyl-1H-imidazol-2-yl)carbonyl)-1,2,3,14b-tetrahydroindolo[2,1-a]pyrrolo[3,4-d][2]benzazepine-3a,7(4H)-dicarboxamide] showed a 50% effective concentration (EC50) of 20 to 500 nM. Moreover, the IC50 against HCV NS5B (reported as class) is 20 to 500 nM.
Compound `COc1ccc2c(c1)C1CN(Cc3ccccc3)CC1(C(=O)N(C)C)Cn1c-2c(C2CCCCC2)c2ccc(C(=O)NS(=O)(=O)N(C)C)cc21` (racemic) [Example 6, rac-(3aR,14bR)-2-benzyl-10-cyclohexyl-N^7-(dimethylsulfamoyl)-13-methoxy-N^3a,N^3a-dimethyl-1,2,3,14b-tetrahydroindolo[2,1-a]pyrrolo[3,4-d][2]benzazepine-3a,7(4H)-dicarboxamide] yielded an EC50 with HCV replicon cells (reported as class) of 20 to 500 nM. The IC50 on HCV NS5B (reported as class) was 20 to 500 nM.
As to `COc1ccc2c(c1)C1CN(C)CC1(C(=O)N(C)C)Cn1c-2c(C2CCCCC2)c2ccc(C(=O)NS(=O)(=O)N(C)C)cc21` (racemic) [Example 10, rac-(3aR,14bR)-10-Cyclohexyl-N^7-(dimethylsulfamoyl)-13-methoxy-N^3a,N^3a,2-trimethyl-1,2,3,14b-tetrahydroindolo[2,1-a]pyrrolo[3,4-d][2]benzazepine-3a,7(4H)-dicarboxamide], the EC50 in the experiment with HCV replicon cells worked out at 26 nM. Besides, inhibition against HCV NS5B was half-maximal at 37 nM (IC50).
`COc1ccc2c(c1)C1CNCC1(C(=O)N1C[C@@H](C)O[C@@H](C)C1)Cn1c-2c(C2CCCCC2)c2ccc(C(=O)NS(=O)(=O)N(C)C)cc21` (mixture of isomers) [Example 2, rac-(3aR,14bR)-10-cyclohexyl-3a-(((2S,6R)-2,6-dimethyl-4-morpholinyl)carbonyl)-N-(dimethylsulfamoyl)-13-methoxy-1,2,3,3a,4,14b-hexahydroindolo[2,1-a]pyrrolo[3,4-d][2]benzazepine-7-carboxamide]: the concentration for a half-maximal effect (EC50) with HCV replicon cells (reported as class) lay within 20 to 500 nM. Further, the IC50 against HCV NS5B (reported as class) lay in the range of 20 to 500 nM.
With `COc1ccc2c(c1)C1CN(C(=O)N(C)C)CC1(C(=O)N1C[C@@H](C)O[C@@H](C)C1)Cn1c-2c(C2CCCCC2)c2ccc(C(=O)NS(=O)(=O)N(C)C)cc21` (mixture of isomers) [Example 11, rac-(3aR,14bR)-10-cyclohexyl-3a-(((2S,6R)-2,6-dimethyl-4-morpholinyl)carbonyl)-N^7-(dimethylsulfamoyl)-13-methoxy-N^2,N^2-dimethyl-1,3a,4,14b-tetrahydroindolo[2,1-c]pyrrolo[3,4-d][2]benzazepine-2,7(3H)-dicarboxamide], the EC50 with HCV replicon cells (reported as class) fell in the range of 20 to 500 nM. Moreover, the IC50 against HCV NS5B (reported as class) lay in the range of 20 to 500 nM.
With `COc1ccc2c(c1)C1CN(C(=O)CN(C)C)CC1(C(=O)N1C[C@@H](C)O[C@@H](C)C1)Cn1c-2c(C2CCCCC2)c2ccc(C(=O)NS(=O)(=O)N(C)C)cc21` (mixture of isomers) [Example 13, rac-(3aR,14bR)-10-Cyclohexyl-2-(N,N-dimethylglycyl)-3a-(((2S,6R)-2,6-dimethyl-4-morpholinyl)carbonyl)-N-(dimethylsulfamoyl)-13-methoxy-1,2,3,3a,4,14b-hexahydroindolo[2,1-a]pyrrolo[3,4-d][2]benzazepine-7-carboxamide], the concentration for a half-maximal effect (EC50) in the experiment with HCV replicon cells (reported as class) lay within 20 to 500 nM. The IC50 against HCV NS5B (reported as class) fell in the range of 20 to 500 nM.
For the compound `COc1ccc2c(c1)C1CN(Cc3ccccc3)CC1(C(=O)N1C[C@@H](C)O[C@@H](C)C1)Cn1c-2c(C2CCCCC2)c2ccc(C(=O)NS(=O)(=O)N(C)C)cc21` (mixture of isomers) [Example 1, rac-(3aR,14bR)-2-benzyl-10-cyclohexyl-3a-(((2S,6R)-2,6-dimethyl-4-morpholinyl)carbonyl)-N-(dimethylsulfamoyl)-13-methoxy-1,2,3,3a,4,14b-hexahydroindolo[2,1-a]pyrrolo[3,4-d][2]benzazepine-7-carboxamide], in the experiment on HCV replicon cells, the midpoint of the response, the EC50, lay at 210 nM. Also, at HCV NS5B, the IC50 was determined as 430 nM.

These data come from patent US8119628B2, “Pyrrolidine fused indolobenzadiazepine HCV NS5B inhibitors” (Bristol-Myers Squibb Company, priority 2008, dated 2012).
